Laboratory results: patent US9435795B2, “Enhanced deposition of chromogens utilizing pyrimidine analogs” (Ventana Medical Systems, Inc., priority 2010, dated 2016)
Values after ≈ are worked out from the molar mass of the structure shown. Values joined by “and” are separate entries in the source; they are usually repeats but may differ in a detail not shown here. Equal values may be shown once. Read-outs that look alike come from different tables or passages of the source.

Legend:
ultraView HRP multimer = molecular target: T1, ultraView HRP multimer (Armoracia rusticana, UniProt P00433); experiment: Michaelis-Menten kinetics of HRP-oxidized DAB with enhanced DAB chromogen mixtures; assay type: biochemical, horseradish
T1 construct: purchased Ventana Medical Systems (ultraView kit component)
T1 sequence (P00433 31-338 limits assumed): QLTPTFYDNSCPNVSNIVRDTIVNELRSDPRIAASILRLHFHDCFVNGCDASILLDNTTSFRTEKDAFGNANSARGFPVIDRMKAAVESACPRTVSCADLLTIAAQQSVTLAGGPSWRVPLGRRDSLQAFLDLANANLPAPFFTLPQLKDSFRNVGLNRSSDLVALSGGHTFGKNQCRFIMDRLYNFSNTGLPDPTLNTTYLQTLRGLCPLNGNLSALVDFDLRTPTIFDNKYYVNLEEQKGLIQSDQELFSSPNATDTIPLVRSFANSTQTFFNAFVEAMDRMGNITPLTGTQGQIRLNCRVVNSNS
Description: To further study the synergistic effect in the increased apparent Vmax for HRP-oxidized DAB, Michaelis-Menten kinetics were calculated for the best enhanced DAB chromogen mixtures in Table 3. […] The definition of Vmax=kcat·[E]total when the enzyme substrate concentration was at saturation levels. When the concentration of enzyme was kept constant, the apparent Vmax is proportional to kcat (the apparent turnover for HRP or the first order rate constant).

[1] = molecular target: T2, horseradish peroxidase (HRP) (Armoracia rusticana, UniProt P00433); experiment: Plate assay: kinetic screening of enhancers of HRP-mediated DAB oxidation (ultraView Detection Kit, OD 455 nm); assay type: biochemical; conditions: for Percent increase of apparent Vmax of HRP: relative to uView Vmax without enhancement
T2 construct: purchased VMSI (Ventana Medical Systems, Inc.) 760-500: 253-4290, 253-4292 and 253-4293
Description: The additives were directly added to a well containing the necessary reagents from the ultraView™ Detection Kit (VMSI 760-500: 253-4290, 253-4292 and 253-4293) in 1× Reaction Buffer (VMSI 950-300) and 0.1% fish gelatin. Fish gelatin was used to help disperse the oxidized DAB and inhibit its precipitation from solution. The ultraView™ Detection Kit was diluted to measure the formation of oxidized DAB by UV-VIS at 455 nm. Additives were tested at set concentrations to determine enhancement in the DAB oxidation reaction. The data were graphed, and the apparent maximum velocity (Vmax) was calculated at each additive concentration level.

[2] = Solubility of additive in reaction buffer / aqueous buffers; assay type: physicochemical; conditions: for solubility: reaction buffer, aqueous buffer, read-out: Solubility of additive in reaction buffer at room temperature
[3] = Compatibility and stability of reformulated DAB Chromogen solution with additive; assay type: physicochemical
[4] = molecular target: T2, horseradish peroxidase (HRP); experiment: Plate assay: enhancers added sequentially to ultraView Detection Kit (synergistic/antagonistic effects); assay type: biochemical; conditions: for Effect on apparent velocity of HRP when added to a preceding assay mixture of Table 2: NMO added to mixture 4, 50 mM L-histidine or 10 mM pyrimidine added to mixture 5
Description: The same concentration of reagents from the ultraView™ Detection Kit (VMSI 760-500: 253-4290, 253-4292 and 253-4293) were used in 1× Reaction Buffer™ containing 0.1% fish gelatin for each trial. In each trial, the enhancers were added together one at a time.

bcl2 on tonsil tissue = experiment: IHC staining of bcl2 on tonsil tissue with enhanced DAB chromogen solutions, pathology scoring; conditions: additive in DAB chromogen solution
Description: IHC staining was performed for bcl2 on tonsil tissue using enhanced DAB chromogen solutions to further examine enhancer synergistic effects on DAB deposition. Reader 1 performed all pathology evaluations during the same period of time.
Formalin fixed paraffin embedded tonsil tissue was mounted on Superfrost slides, deparaffinized and antigen retrieved using CC1 bulk reagent (Ventana® p/n 950-124). Following retrieval, one drop (100 μL) of UV Inhibitor (a component of the ultraView™ DAB kit) was dispensed onto a slide and incubated for 8 minutes. Following the incubation of the Inhibitor, 1 drop of the mouse anti-bcl2 (clone 124; Ventana® p/n 790-4464) was dispensed onto the slide and incubated for 16 minutes. Following 2 rinses with reaction buffer, the bcl2 antibody was detected using 1 drop of the ultraView™ universal HRP conjugate (a component of the ultraView™ DAB kit) and incubated on the slide for 8 minutes. One drop of DAB (5.5 mM DAB; 0.05% Brij® 35; plus any combination of enhancers investigated in table 3) and H2O2 were each added to the slides and incubated for 8 minutes. ultraView™ DAB was used as the reference. After rinsing the slides in reaction buffer, 100 μL of copper (component of ultraView™ DAB kit) was applied to slide for 4 minutes. Slides were counterstained using Hematoxylin II (Ventana® p/n 790-2208) and Bluing Reagent (Ventana p/n760-2037). […]

[5] = enhancer 10 mM in 50 mM imidazole, 10 mM calcium chloride, 10 mM boric acid
[6] = enhancer 10 mM, no enhancer 18.50
[7] = enhancer 50 mM, no enhancer 18.50, (sat) = reaction rate saturated by start of UV-VIS analysis
[8] = enhancer 100 mM, no enhancer 18.50, (sat) = reaction rate saturated by start of UV-VIS analysis

| Structure (SMILES) | Vmax (apparent, HRP-oxidized DAB) [1, 6] | Vmax (apparent, HRP-oxidized DAB) [1, 7] | Vmax (apparent, HRP-oxidized DAB) [1, 8] | Enhancement of apparent velocity of HRP-mediated DAB oxidation (in words) [1] | also measured |
| --- | --- | --- | --- | --- | --- |
| Oc1ccccn1 [2-Hydroxypyridine] | 47.67 mOD/min | 18.19 mOD/min | 15.98 mOD/min | – | Vmax (ultraView HRP multimer; [5]): 383 mOD/min; Percent increase of apparent Vmax of HRP ([1]; enhancer 10 mM): 157% |
| O=C1CC(=O)NC(=S)N1 [2-Thiobarbituric Acid] | 54.00 mOD/min | 56.00 mOD/min | 76.00 mOD/min | – | – |
| CC(=O)Nc1ccc(B(O)O)cc1 [4-AcHNPhB(OH)2, 4-acetylamidophenyl boronic acid] | 32.80 mOD/min | – | – | – | Vmax (apparent, HRP-oxidized DAB) ([1]; enhancer 5 mM, no enhancer 18.50): 21.20 mOD/min; Percent increase of apparent Vmax of HRP ([1]; enhancer 10 mM): 77%; Vmax (apparent, HRP-oxidized DAB) ([1]; enhancer 20 mM, no enhancer 18.50): 32.00 mOD/min |
| CN(C)c1ccncc1 [4-dimethylaminopyridine] | – | – | – | no enhancement | – |
| c1ccc2[nH]cnc2c1 [Benzimidazole] | – | – | – | no enhancement | – |
| OB(O)O [Boric Acid] | 67.47 mOD/min | – | – | – | Percent increase of apparent Vmax of HRP ([1]; enhancer 10 mM): 265%; Percent increase of apparent Vmax of HRP ([1]; enhancer 50 mM): 592% |
| [Ca+2].[Cl-].[Cl-] [Calcium Chloride] | – | – | – | – | Vmax (apparent, HRP-oxidized DAB) [1]: 43.50 mOD/min and 52.50 mOD/min and 57.00 mOD/min |
| Nc1cc[nH]c(=O)n1 [Cytosine] | 36.00 mOD/min | 66.00 mOD/min | – | increased the apparent velocity of HRP | Solubility in aqueous buffers (in words) [2]: solubility problems in aqueous buffers; solubility ([2]; additive 50 mM): 10 to 50 mM (≈ 1110 to 5560 µg/mL); solubility ([2]; additive 100 mM): 10 to 100 mM (≈ 1110 to 11100 µg/mL) |
| c1c[nH]cn1 [Imidazole] | 28.80 mOD/min | – | – | – | Precipitation of DAB from reformulated DAB Chromogen solution ([3]; higher concentrations of imidazole, 50 mM L-histidine): causing DAB to precipitate; Vmax (apparent, HRP-oxidized DAB), enhancers added sequentially ([4]; no enhancement 18.50): 34.00 mOD/min; Vmax (ultraView HRP multimer; 10 mM buffer salt with 10 mM pyrimidine, no enhancer 228): 330 mOD/min; Vmax (ultraView HRP multimer; 50 mM buffer salt with 10 mM 2-hydroxypyrimidine (FIG. 19: also 10 mM boric acid, 10 mM calcium chloride)): 320 mOD/min; Percent increase of apparent Vmax of HRP ([1]; enhancer 10 mM): 56%; DAB staining on tissue, pathological review (in words) (bcl2 on tonsil tissue): significantly increased the DAB staining intensity |
| N[C@@H](Cc1c[nH]c2ccccc12)C(=O)O [L-Tryptophan] | 30.00 mOD/min | 52.00 mOD/min | 64.00 mOD/min | – | – |
| C[N+]1([O-])CCOCC1 [NMO, 4-methyl-morpholine N-oxide] | – | – | – | – | Effect on apparent velocity of HRP when added to a preceding assay mixture of Table 2 [4]: antagonistic effect; Vmax (apparent, HRP-oxidized DAB) ([1]; enhancer 0.13% (10.7 mM)): 33.60 mOD/min; Vmax (apparent, HRP-oxidized DAB) ([1]; enhancer 0.25% (21.3 mM)): 43.60 mOD/min; Vmax (apparent, HRP-oxidized DAB) ([1]; enhancer 0.50% (42.7 mM)): 51.60 mOD/min |
| c1cocn1 [Oxazole] | 24.00 mOD/min | 40.00 mOD/min | 18.00 (sat) mOD/min | – | – |
| [O-][n+]1cccnc1 [Pyrimidine-N-oxide] | 104.00 mOD/min | 104.00 mOD/min | 36.00 mOD/min | – | Solubility in aqueous buffers (in words) [2]: do not have solubility or volatility problems; Functionality over time of DAB reformulated with additive [3]: lost functionality and stopped staining with time; Vmax (ultraView HRP multimer; [5]): 374 mOD/min; DAB staining on tissue, pathological review (in words) (bcl2 on tonsil tissue): best DAB signal to background noise ratio for the two enhancers |
| c1cncnc1 [Pyrimidine] | 104.00 mOD/min | 124.00 mOD/min | 36.80 (sat) mOD/min | – | Effect on apparent velocity of HRP when added to a preceding assay mixture of Table 2 [4]: increased the apparent velocity of HRP; Vmax (ultraView HRP multimer; enhancer 50 mM in 50 mM imidazole, 10 mM calcium chloride, 10 mM boric acid): 326 mOD/min; Percent increase of apparent Vmax of HRP ([1]; enhancer 10 mM): 462%; Percent increase of apparent Vmax of HRP ([1]; enhancer 50 mM): 570% |
| CC1(C)CCCC(C)(C)N1[O] [TEMPO, 2,2,6,6-tetramethylpiperidine-1-oxyl] | – | – | – | – | Vmax (apparent, HRP-oxidized DAB) ([1]; enhancer 0.13% (8 mM)): 18.00 mOD/min; Vmax (apparent, HRP-oxidized DAB) ([1]; enhancer 0.25% (16 mM)): 24.80 mOD/min; Vmax (apparent, HRP-oxidized DAB) ([1]; enhancer 0.50% (32 mM)): 21.20 mOD/min |
| c1cscn1 [Thiazole] | 66.40 mOD/min | 27.00 (sat) mOD/min | 27.05 (sat) mOD/min | – | – |
| Cc1c[nH]c(=O)[nH]c1=O [Thymine] | 82.00 mOD/min | 86.00 mOD/min | 74.00 mOD/min | increased the apparent velocity of HRP | – |
| O=c1cc[nH]c(=O)[nH]1 [Uracil] | 52.00 mOD/min | 72.00 mOD/min | – | increased the apparent velocity of HRP | Solubility in aqueous buffers (in words) [2]: solubility problems in aqueous buffers; solubility ([2]; additive 50 mM): 10 to 50 mM (≈ 1120 to 5600 µg/mL); solubility ([2]; additive 100 mM): 10 to 100 mM (≈ 1120 to 11200 µg/mL) |
| CN(C)c1ccc2nc3ccc(=[N+](C)C)cc-3sc2c1 [methylene blue] | – | – | – | no enhancement | – |
| c1ccc2c(c1)Nc1ccccc1S2 [phenothiazine] | – | – | – | no enhancement | – |
